Laboratory results published in US20230372318A1, “METHODS FOR TREATING A SUBJECT HAVING MULTIPLE SYSTEM ATROPHY” (Theravance Biopharma R&D IP, LLC, priority 2022, published 2023).

Assays:
rat native NET [1] = experiment: [3H]-NE uptake inhibition, rat cortical synaptosomes; assay type: biochemical; details: [3H]-NE vs [3H]-5-HT uptake
From the text: (§1) The in vitro pharmacology of ampreloxetine at human recombinant and rat native monoamine transporters was characterized as described in Smith et al., Inter. J. Neuropsychopharmcol. (2015) 1-11; and Tsuruda et al., J. Pharmacol. Toxicol. Meth. (2010) 61:192-204. See also, e.g., U.S. Pat. Nos. 8,304,432 B2 and 8,304,433 B2. Radioligands were sourced commercially (Perkin Elmer LifeSciences or GE Healthcare Life Sciences).
(§2) Briefly, membranes prepared from HEK293 (Human Embryonic Kidney 293) or CHO-K1 (Chinese Hamster Ovary-K1) cells stably transfected with human recombinant SERT (HEK293-hSERT), NET (HEK293-hNET), or DAT (CHO-K1-hDAT) were incubated for 1 hr at 22° C. in the absence, or presence, of 4-[2-(2,4,6-trifluorophenoxymethyl)phenyl]piperidine and [^3H]-citalopram (1.0 nM) for SERT, [^3H]-nisoxetine (2.0 nM) for NET, and [^3H]-WIN35428 (3.0 nM) for DAT in 50 mM Tris-HCl, 120 mM NaCl, 5 mM KCl, 0.025% BSA, 100 μM ascorbic acid, pH 7.4. Rat cortical membrane preparations were incubated with [^3H]-citalopram (2.0 nM) for SERT or [^3H]-nisoxetine (4.0 nM) for NET for 1 hr at 22° C. […] Binding and uptake assays were terminated by rapid filtration and radioactivity determined by liquid scintillation spectroscopy. […] Selectivity for NET (rounded to one significant figure) was determined as follows: […]

human recombinant NET = biological target: T1, human recombinant NET (Homo sapiens, UniProt P23975); experiment: Radioligand binding, [3H]-nisoxetine, HEK293-hNET membranes; details: mean (95% confidence intervals)
T1 construct: expressed in transfected cells; host or cells: HEK293
From the text: as §1, §2

rat native NET [2] = biological target: T2, rat native NET (Rattus norvegicus, UniProt Q63380); experiment: Radioligand binding, [3H]-nisoxetine, rat cortical membranes; details: mean (95% confidence intervals)
T2 construct: human recombinant and rat native monoamine transporters; from tissue; host or cells: rat cerebral cortex (membranes; synaptosomes)
From the text: as §1, §2

[3] = Rat oral pharmacokinetics, one-compartment PK/PD model; assay type: in vivo
Description: Adult male Sprague Dawley rats (Charles River) were housed under controlled laboratory conditions (temperature at 21±1° C.) on a 12:12 hour light-dark cycle. Animals were given free access to food and water upon arrival to the facility and animals were acclimatized to their holding room for at least 48 hours. Animals were fasted but allowed free access to water for 15-18 hours prior to dosing.
Rats (n=6/timepoint/dose level) received a single oral dose of 4-[2-(2,4,6-trifluorophenoxymethyl)phenyl]piperidine (0.3, 1, 5, 10, 30, and 60 mg/kg) and were euthanized by decapitation at specified time points (0.5, 2, 4, 6, and 8 hr for 5 mg/kg dose level; 2 hr for 0.3, 1, 10, 30, and 60 mg/kg dose levels) post-administration. Spinal cords were dissected for ex vivo transporter occupancy and PK assessments from the same animals. The spinal cord was harvested by hydraulic extrusion using phosphate-buffered saline, and the lumbar segment dissected and frozen on dry ice. The remaining spinal cord segments were collected and homogenized in water (25% w/w) for PK analysis. All samples were stored at −80° C. until analysis.
A kinetic radioligand binding assay was used to determine NET and SERT occupancy in rat spinal cord, as described previously in Bourdet et al., J. Pharm. Exp. Ther. (2012) 341:137-145. PK/PD parameters were estimated by a compartmental modeling approach (WinNonlin Version 5.0.1, Pharsight Corporation). One- and two-compartment PK models with first-order absorption and elimination were evaluated. The one-compartment model was selected. The pharmacodynamics model was an effect compartment Emax model linked directly to the central PK compartment (WinNonlin PK Model 3, PD Model 101). Selection of models was based upon best fit in terms of visual inspection, Akaike Information Criteria, and weighted residual sum of squares using the Gauss-Newton minimization method.

norepinephrine (NE) = experiment: Plasma norepinephrine levels in Examples 6 and 7; assay type: in vivo, human; details: for NE at End of Ex. 6/Start of Ex. 7: 4 weeks; for NE at End of Ex. 6/Start of Ex. 7 / NE on Day 29 of Ex. 7 Open Label: mean ± SD
Description: For pharmacodynamic assessments, blood samples for pharmacodynamic markers (including [dihydroxyphenylglycol] DHPG and NE) were collected after the subject had been seated for approximately 30 minutes.
Blood samples for pharmacodynamic markers ([dihydroxyphenylglycol] DHPG and NE) were collected at select study visits as defined in the Schedule of Study Procedures after the subject had been seated for 30 minutes. This was applicable to all consenting subjects.
Moreover, it has also been discovered that the supine norepinephrine level in a subject having multiple system atrophy continues to increase for at least about 8 weeks when the subject is treated daily with ampreloxetine as shown in Table 8:
Before treatment with ampreloxetine, supine norepinephrine (NE) levels in subjects with MSA are less than about 350 pg/mL. After about 8 weeks of treatment, supine norepinephrine levels are greater than about 500 pg/mL. Supine norepinephrine levels were determined using standard procedures (see, e.g., Goldstein et al., Annals of Neurology, 1989:26(4) 558-563; and Palma et al., Neurology, 2018:91(16) e1539-e1544).

[4] = human, cited from earlier work
healthy subjects = details: single dose up to 50 mg and multiple doses up to 20 mg once per day; cited from earlier work
[5] = system: subjects with symptomatic nOH; details: cited from earlier work

T1 sequence (P23975 whole entry): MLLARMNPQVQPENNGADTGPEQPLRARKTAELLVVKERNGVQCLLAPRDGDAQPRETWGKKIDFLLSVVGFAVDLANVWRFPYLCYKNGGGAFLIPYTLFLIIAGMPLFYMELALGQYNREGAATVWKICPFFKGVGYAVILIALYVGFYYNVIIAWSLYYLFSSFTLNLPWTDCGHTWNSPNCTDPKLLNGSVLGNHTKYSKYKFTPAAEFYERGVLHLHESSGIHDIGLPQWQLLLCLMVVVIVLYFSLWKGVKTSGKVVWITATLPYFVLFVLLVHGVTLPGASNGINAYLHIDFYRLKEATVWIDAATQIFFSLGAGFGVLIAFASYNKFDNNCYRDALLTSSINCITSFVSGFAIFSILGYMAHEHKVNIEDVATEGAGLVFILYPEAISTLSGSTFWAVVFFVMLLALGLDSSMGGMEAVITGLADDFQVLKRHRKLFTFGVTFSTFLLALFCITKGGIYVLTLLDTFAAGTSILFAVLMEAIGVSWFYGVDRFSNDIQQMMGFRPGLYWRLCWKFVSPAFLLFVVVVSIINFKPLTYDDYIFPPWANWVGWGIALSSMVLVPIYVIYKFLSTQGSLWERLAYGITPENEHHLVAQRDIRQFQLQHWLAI
T2 sequence (Q63380 1-617): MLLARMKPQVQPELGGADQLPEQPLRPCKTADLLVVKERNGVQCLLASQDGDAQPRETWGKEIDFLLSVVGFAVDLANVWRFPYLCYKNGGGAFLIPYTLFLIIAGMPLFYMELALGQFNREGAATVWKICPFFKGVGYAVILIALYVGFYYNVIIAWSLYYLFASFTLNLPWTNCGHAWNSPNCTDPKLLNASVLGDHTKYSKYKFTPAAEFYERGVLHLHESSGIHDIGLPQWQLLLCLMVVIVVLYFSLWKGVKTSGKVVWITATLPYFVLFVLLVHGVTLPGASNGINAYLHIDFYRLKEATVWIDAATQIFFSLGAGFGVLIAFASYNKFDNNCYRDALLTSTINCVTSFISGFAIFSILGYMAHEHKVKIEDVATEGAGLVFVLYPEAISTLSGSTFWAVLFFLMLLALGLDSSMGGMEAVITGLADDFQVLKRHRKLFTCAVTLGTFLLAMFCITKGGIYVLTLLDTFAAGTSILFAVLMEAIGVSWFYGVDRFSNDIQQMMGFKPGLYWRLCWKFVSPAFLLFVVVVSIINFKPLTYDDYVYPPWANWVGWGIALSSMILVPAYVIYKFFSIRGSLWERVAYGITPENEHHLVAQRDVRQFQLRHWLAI

For `Fc1cc(F)c(OCc2ccccc2C2CCNCC2)c(F)c1` [Ampreloxetine, 4-[2-(2,4,6-trifluorophenoxymethyl)phenyl]piperidine], the “Apparent functional selectivity for NET over SERT” value (rat native NET [1]) was 10 fold, the “Transporter Binding: pKi, NET” value (human recombinant NET) was 8.8 (8.8, 8.9) and the “Transporter Binding: pKi, NET” value (rat native NET [2]) was 8.7 (8.5, 8.9). The “V/F, volume of the central compartment divided by oral bioavailability” value [3] was 54.8 L/kg, the “k01, first-order absorption rate constant” value [3] was 0.777 h⁻¹ and the “k10, elimination rate constant from the central compartment” value [3] was 0.319 h⁻¹. For the same molecule, the “NE at End of Ex. 6/Start of Ex. 7” value (norepinephrine (NE); MSA, Example 6 ampreloxetine 10 mg QD group, start of Ex. 6: 280 ± 138) was 439 ± 250 pg/mL, the “NE on Day 29 of Ex. 7 Open Label” value (norepinephrine (NE); MSA, Example 6 ampreloxetine 10 mg QD group, about 8 weeks) was 539 ± 361 pg/mL and the “NE on Day 29 of Ex. 7 Open Label” value (norepinephrine (NE); MSA, Example 6 placebo group, received ampreloxetine in open-label part, start of Ex. 7: 291 ± 173) was 557 ± 298 pg/mL. The “NE at End of Ex. 6/Start of Ex. 7” value (norepinephrine (NE); PAF, Example 6 ampreloxetine 10 mg QD group, start of Ex. 6: 232 ± 110) was 357 ± 204 pg/mL, the “NE on Day 29 of Ex. 7 Open Label” value (norepinephrine (NE); PAF, Example 6 ampreloxetine 10 mg QD group, about 8 weeks) was 455 ± 238 pg/mL and the “NE on Day 29 of Ex. 7 Open Label” value (norepinephrine (NE); PAF, Example 6 placebo group, received ampreloxetine in open-label part, start of Ex. 7: 156 ± 82) was 267 ± 87 pg/mL. For the same molecule, the “NE at End of Ex. 6/Start of Ex. 7” value (norepinephrine (NE); PD, Example 6 ampreloxetine 10 mg QD group, start of Ex. 6: 340 ± 237) was 407 ± 154 pg/mL, the “NE on Day 29 of Ex. 7 Open Label” value (norepinephrine (NE); PD, Example 6 ampreloxetine 10 mg QD group, about 8 weeks) was 552 ± 270 pg/mL and the “NE on Day 29 of Ex. 7 Open Label” value (norepinephrine (NE); PD, Example 6 placebo group, received ampreloxetine in open-label part, start of Ex. 7: 340 ± 266) was 443 ± 157 pg/mL. The Supine norepinephrine levels (norepinephrine (NE); subjects with MSA, after about 8 weeks of treatment, before treatment less than about 350) was “greater than 500 pg/mL”, the “Dose proportionality of Cmax and AUC” value ([4]; administered doses) was “linear with near dose proportional exposure” and the “Time to steady state” value ([4]; once daily dosing) was no more than 6 days. For the same molecule, the Safety and tolerability (healthy subjects) was “generally well tolerated”, the “Improvement in standing time” value ([5]; Part A, 4 hours after dosing at 10 mg) was “approximately 100 seconds” and the “Dose response of single ascending doses” value ([5]; Part A, up to 20 mg) was “no dose response was observed”. For the same molecule, the “SBP following 3 minutes of standing” value ([5]; Part B, up to 15 mg, 4- and 7-hours post-dose) was “sustained increase in SBP over baseline” and the “Improvement from baseline of at least 2 points in OHSA #1 score” value ([5]; Part C, open-label 3-20 mg once-daily up to 20 weeks) was “A large proportion of subjects met this endpoint”.
